Results: patent US20260284051A1, “METHIONINE ADENOSYLTRANSFERASE 2A (MAT2A) INHIBITOR COMBINATIONS AND USES THEREOF” (INSILICO MEDICINE IP LIMITED, priority 2023, published 2026)

Tested on: KP4 MTAP null xenografts
Experiment: Efficacy study of KP-4 human pancreatic cancer xenograft model in NOD SCID mice
Type: in vivo
Conditions: for Tumor volume (mm^3) Final (mean): Mean ± SD
Method: Efficacy Study of KP-4 Human Pancreatic Cancer Xenograft Model in NOD SCID Mice
The KP-4 tumor cell line was maintained in vitro as monolayer culture in RPMI 1640 medium supplemented with 10% fetal bovine serum at 37° C. in an atmosphere of […] in air. The tumor cells were routinely subculture weekly by trypsin-EDTA treatment, not to exceed 4-5 passages. The cells growing in an exponential growth phase was harvested and counted for tumor inoculation.
Each mouse was inoculated subcutaneously on the central right flank with KP-4 tumor cells (1×10^7) in 0.1 mL of RPMI-1640 without serum for the tumor development. The treatment started when the mean tumor size reached approximately 100 mm^3. Mice were assigned to groups such that the mean tumor volume is the same for each treatment group and time point.
For routine monitoring, all study animals were monitored for not only tumor growth but also behavior such as mobility, food, and water consumption (by cage side checking only), body weight (BW), eye/hair matting and any other abnormal effect. Any mortality and/or abnormal clinical signs were recorded.
Body weights of all animals were measured twice a week throughout the study. Body weight change, expressed in %, will be calculated using the following formula: BW change (%)=(BWDay x/BWDay 0)×100, where BWDay x is BW on a given day, and BWDay 0 is BW on Day 0 (initiation of treatment).
The measurement of tumor size were conducted twice a week with a caliper and the tumor volume (mm^3) was estimated using the formula: TV=a×b^2/2, where a and b are long and short diameters of a tumor, respectively. The TVs were used for calculation of the tumor growth inhibition (TGI, an indicator of antitumor effectiveness) value using the formula: TGI (%)=[1−(Tn−T0)/(Cn−C0)]×100%, only over the dosing period (dosing days 0 to days n). Where: Tn—is the avg tumor volume at the respective day “n” after dosing throughout treatment period; T0—is the avg tumor volume in the treatment group at day 0 before treatment (immediately before); Cn—avg tumor volume in the control group at the respective day “n” after dosing throughout treatment period; and C0—average tumor volume in the control group at day 0 before treatment (immediately before). The experiment was terminated when the mean tumor volume exceeded 2000 mm^3 or severe body weight loss.
The statistical software GraphPad Prism (version number: 8) was used to analyze the difference in tumor volume between the treatment group and the solvent control group. Two-way ANOVA and Bonferroni multiple tests were used to compare whether there was a significant difference in tumor volume between the vehicle control group and each treatment group during the administration period.
Mean tumor volume at dosing start was approximately 102 mm^3, with ten mice randomized to each treatment group. In the KP4 MTAP null tumor model, mice were dosed orally, once per day (QD) with Vehicle, once per day (QD) with Compound 1 at 1, 3 mg/kg, once per day (QD) with AG270 at 100 mg/kg, mice were intravenous, per week with Docetaxel at 2.5 mg/kg, or Compound 1 combined with Docetaxel at each dose level.

## C#CCNc1nc(=O)n(-c2cccnc2C)c2cc(C(F)(F)F)cc(OC)c12 [Example 36, 5-methoxy-1-(2-methylpyridin-3-yl)-4-(prop-2-yn-1-ylamino)-7-(trifluoromethyl)quinazolin-2(1H)-one]
Compound 1 1 mg/kg orally QD
  TGI (%): 36.8%
  Tumor volume (mm^3) Final (mean): 1,484 ± 263 mm^3
Compound 1 3 mg/kg orally QD
  TGI (%): 53.4%
  Tumor volume (mm^3) Final (mean): 1,121 ± 181 mm^3
Combination of Compound 1 (1, 3 mg/kg) and Docetaxel 2.5 mg/kg
  effect on tumor growth (in words): significantly inhibited tumor growth in a dose dependent manner
combination: Compound 1 1 mg/kg QD + Docetaxel 2.5 mg/kg per week
  Tumor volume (mm^3) Final (mean): 767 ± 101 mm^3
combination: Compound 1 1 mg/kg QD + Docetaxel 2.5 mg/kg per week, listed as Compound 1
  TGI (%): 69.6%
combination: Compound 1 3 mg/kg QD + Docetaxel 2.5 mg/kg per week
  Tumor volume (mm^3) Final (mean): 686 ± 80 mm^3
combination: Compound 1 3 mg/kg QD + Docetaxel 2.5 mg/kg per week, listed as Compound 1
  TGI (%): 73.2%
